{"source": "paper PMC3547856", "about": "“Naphthoquinone Derivatives Exert Their Antitrypanosomal Activity via a Multi-Target Mechanism” (PLoS Neglected Tropical Diseases, 2013)", "key": {"[1]": {"system": "permeabilized T. b. brucei bloodstream-form cells", "experiment": "Oxygen consumption in permeabilized bloodstream-form cells (Clark electrode)", "format": "cell-based", "experimental": "Oxygen consumption was monitored in a thermostated vessel at 37°C with a Clark electrode (oxygraph). Measurements in permeabilized bloodstream-form T. brucei were done in buffer 1 (96.9 mM NaCl, 3.1 mM KCl, 5 mM MgCl2, 2 mM Na2HPO4, 90 mM Tris at pH 7.5). Batches of 2×10^7 cells were pelleted, washed in buffer 1 and incubated for 5′ on ice in 1 ml of buffer 1 containing 1 ng digitonin to permeabilize the cells. Subsequently the permeabilized cells were pelleted and washed twice with buffer 1 without digitonin after which the pellet was taken up in 1 ml buffer 1 and transferred to the oxygraph. Substrates and inhibitors were added as described in the text.\nB6 and SHAM were dissolved in DMSO. The DMSO concentration used in these oxygen consumption measurements was less than 0.7%.\nTo determine whether B6 could exert its trypanocidal action also through this mechanism, respiration was monitored in permeabilized T. b. brucei bloodstream-form cells in the presence of B6 and/or SHAM (Fig. 7). SHAM is an inhibitor of TAO, which acts as the final electron acceptor in bloodstream form T. b. brucei."}, "[2]": {"system": "bloodstream form T. b. brucei G6PDH RNAi cell line", "experiment": "Growth inhibition of bloodstream-form T. b. brucei G6PDH RNAi cell line", "format": "cell-based", "excerpt": "To provide support for the notion that the trypanocidal effect of B6 could in part be attributed to the generation of toxic ROS, we made use of an available bloodstream form T. b. brucei cell line in which glucose-6-phosphate dehydrogenase (G6PDH) expression can be knocked down by RNA interference (RNAi). Previously, it has been shown that this cell line grows equally well as wild-type cells under normal (reducing) growth conditions, but it is highly susceptible to ROS when the G6PDH expression is partially knocked down, an effect attributed to decreased NADPH production."}, "[3]": {"molecular_target": "TbGAPDH (Trypanosoma brucei brucei, UniProt P22512)", "sequence (P22512 whole entry)": "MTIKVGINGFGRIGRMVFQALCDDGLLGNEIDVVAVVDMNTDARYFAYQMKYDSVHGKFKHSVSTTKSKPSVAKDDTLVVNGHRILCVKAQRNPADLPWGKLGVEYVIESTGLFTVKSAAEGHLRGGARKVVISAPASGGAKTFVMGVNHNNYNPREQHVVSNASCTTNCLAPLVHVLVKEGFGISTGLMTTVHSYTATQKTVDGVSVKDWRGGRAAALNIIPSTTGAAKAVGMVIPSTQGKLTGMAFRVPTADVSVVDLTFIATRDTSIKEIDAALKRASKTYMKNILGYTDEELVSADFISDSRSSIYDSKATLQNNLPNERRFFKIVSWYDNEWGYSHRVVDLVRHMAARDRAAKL", "experiment": "T. b. brucei glyceraldehyde-3-phosphate dehydrogenase enzyme-coupled spectrophotometric assay", "format": "biochemical", "conditions": "for IC50: 10 min pre-incubation", "experimental": "The kinetics of the TbGAPDH reaction was monitored using a continuous enzyme-coupled spectrophotometric assay, as previously described. In brief, TbGAPDH activity was measured following the NADH oxidation at 340 nm, in a coupled assay with 3-phosphoglycerate kinase and using a Jasco V-550 spectrophotometer.\nAll measurements were performed at 25°C in 0.01 M triethanolamine, pH 7.6, 1.7 mM ATP, 1 mM EDTA, 100 mM KCl, 5 mM MgSO4, 1.7 mM NaHCO3, 25 µg 3-phosphoglycerate kinase. The IC50 values were determined in a final volume of 1 ml in the presence of 120 ng TbGAPDH and 5.6 mM 3-phosphoglycerate (3-PGA), while varying the B6 concentration after a pre-incubation of enzyme plus inhibitor for 10 min. The reaction was started by the addition of 0.2 mM NADH. Each point of the curve was measured in triplicates and the value for IC50 was estimated from graphically plotted dose-response curves.\nThe type of inhibition was determined with respect to NADH and 3-PGA in consideration of Michaelis-Menten steady-state conditions. To investigate the inhibition mechanism with respect to NADH, TbGAPDH was incubated for 10 min at room temperature with different inhibitor concentrations (0–15 µM) in a total volume of 1 ml. The reaction was initiated by the addition of 5.6 mM 3-PGA and NADH (ranging from 5 µM to 200 µM). The inhibition mechanism with respect to 3-PGA was determined in a similar way. To this end, TbGAPDH was incubated with varying inhibitor concentrations (10 nM–100 µM). The reaction was initiated by the addition of 0.2 mM NADH and 3-PGA (ranging from 50 µM to 5.6 mM). The α and Ki values were obtained from Dixon and secondary plots. The reported values represent the mean of two independent experiments."}, "[4]": {"system": "bloodstream-form T. b. brucei strain Lister 427", "experiment": "Growth inhibition (LILIT) of bloodstream-form T. b. brucei", "format": "cell-based", "conditions": "cultured bloodstream form", "experimental": "(§1) We used bloodstream and procyclic forms of T. b. brucei strain Lister 427, cell lines 449 [34], constitutively expressing the E. coli tetracycline (Tet) repressor gene via the chromosomally integrated plasmid pHD449 that also confers phleomycin resistance. Bloodstream forms were cultured in HMI-9 medium containing 10% heat-inactivated foetal calf serum (Invitrogen) and 0.18 µg/ml phleomycin (Cayla) at 37°C under water-saturated air with 5% CO2. Procyclic trypanosomes were grown in SDM79 medium supplemented with 15% foetal calf serum and 0.5 µg/ml phleomycin at 28°C under water-saturated air with 5% CO2. The glucose-depleted SDM-80 medium, first employed by Lamour et al., was supplemented with 5 µg/ml hemin, 9% (v/v) dialyzed “glucose free” heat-inactivated foetal calf serum (Sigma) and 1% (v/v) of normal heat-inactivated foetal calf serum (Invitrogen).\n(§2) The anti-trypanosomal activity tests were also performed on T. b. brucei according to the “Long Incubation Low Inoculation Test” (LILIT), [39] using cultured bloodstream and procyclic forms of T. b. brucei strain Lister 427, cell line 449 [34]."}, "[5]": {"system": "procyclic T. b. brucei strain Lister 427", "experiment": "Growth inhibition (LILIT) of procyclic T. b. brucei with or without glucose", "format": "cell-based", "experimental": "as §1, §2\nTests of growth inhibition by B6 were performed on procyclic trypanosomes cultured in medium containing glucose (SDM79 medium), resulting in glycolytic activity for the cells' main energy supply, or without glucose (SDM80 medium), where the proline is the main substrate for free energy production through mitochondrial metabolism. Under these latter conditions, the glycosomal GAPDH would still be needed for gluconeogenesis, to synthesize glucose 6-phosphate for production of glucoconjugates, but the gluconeogenic flux is assumed to be much lower than the glycolytic flux when glucose is present."}, "[6]": {"system": "T. b. brucei bloodstream-form mitochondria", "experiment": "ROS (H2O2) production by mitochondrial fraction, H2DCFDA fluorescence", "format": "cell-based", "conditions": "10 µM B6, in the presence of G3P", "experimental": "Bloodstream- and procyclic-form T. b. brucei cells (strain Lister 427, cell line 449) were cultured up to the exponential growth phase and homogenates were obtained by grinding the washed parasite pellets with silicon-carbide abrasive grain (mesh 300) in disruption buffer containing 250 mM sucrose, 25 mM Tris-HCl and l mM EDTA, pH 7.8 (STE buffer). Differential centrifugation was performed as follows: the suspension was taken up in another 3 ml STE buffer and centrifuged at 30 g for 3 min. The supernatant, representing the cell homogenate, was centrifuged at 1,500 g for 10 min giving the nuclear fraction. The post-nuclear supernatant was then centrifuged at 5,000 g for 10 min giving the large-granular (mitochondria-enriched) fraction as pellet. This fraction was resuspended in 300 µl STE buffer.\nThe method used to measure H2O2 production in T. b. brucei mitochondria is based on the fluorogenic probe 2′,7′-dichlorodihydrofluorescein diacetate (H2DCFDA) which emits an intense green fluorescence only after deacetylation and subsequent oxidation. ROS production by the mitochondrial fraction of bloodstream form T. b. brucei was measured in a 96-well microtiter plate using a fluorescence plate reader (Victor Wallace multiplate reader).\nIn each well, 0.25 mg mitochondrial protein/ml and 5 µM H2DCFDA to a final volume of 0.2 ml with 10 mM Tris-HCl, 50 mM KCl, 1 mM EDTA, pH 7.5 were present. […]"}, "[7]": {"system": "mammalian cell lines", "parameters": "method as in PMID 18353643", "conditions": "ratio of ED50 values on mammalian cell lines and trypanosomes; cited from earlier work"}, "[8]": {"molecular_target": "TbGK (Trypanosoma brucei brucei, UniProt Q9NJP9)", "sequence (Q9NJP9 whole entry)": "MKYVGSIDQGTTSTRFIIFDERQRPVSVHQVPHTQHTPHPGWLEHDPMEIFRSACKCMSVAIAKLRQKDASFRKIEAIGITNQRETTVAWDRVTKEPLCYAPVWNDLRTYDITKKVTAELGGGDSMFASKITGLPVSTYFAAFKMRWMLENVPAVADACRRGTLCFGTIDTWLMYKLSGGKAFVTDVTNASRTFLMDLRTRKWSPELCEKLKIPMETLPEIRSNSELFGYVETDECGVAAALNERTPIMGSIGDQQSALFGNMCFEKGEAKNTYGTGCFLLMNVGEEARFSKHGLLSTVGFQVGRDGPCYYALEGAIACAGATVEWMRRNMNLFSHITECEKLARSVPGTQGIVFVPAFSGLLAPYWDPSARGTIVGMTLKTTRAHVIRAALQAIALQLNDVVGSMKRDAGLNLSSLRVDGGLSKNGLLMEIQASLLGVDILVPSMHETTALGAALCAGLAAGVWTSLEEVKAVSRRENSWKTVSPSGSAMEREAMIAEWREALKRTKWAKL", "experiment": "T. b. brucei glycerol kinase enzyme-coupled spectrophotometric assay", "format": "biochemical", "conditions": "mean of three independent experiments; 25°C", "experimental": "The expression construct has been obtained by subcloning the corresponding GK gene (isolated from T. b. brucei strain Lister 427) from the formerly designed pET15-TbGK plasmid into vector pET28 to create the final expression plasmid pET28-TbGK (unpublished data). TbGK was then expressed in E. coli BL21(DE3)-CodonPlus-RIL grown in 1 liter LB medium supplemented with kanamycin (50 µg/ml) and chloramphenicol (34 µg/ml) for 16 h at 37°C. Expression was induced by adding 1 mM isopropyl β-d-thiogalactanopyranoside (IPTG), and growth was continued for another 2 h at 37°C. […] TbGK was eluted using a 10 column volumes linear imidazole-gradient using buffer A and buffer B. Eluted fractions were analyzed by SDS-PAGE. […] After overnight incubation at 16°C, the digested protein was concentrated and desalted using a Superdex 75 column equilibrated with buffer A. Protein concentration was determined at 280 nm (extinction coefficient = 81650 M^−1 cm^−1). […]\nThe TbGK activity was measured using a modified version of a continuous enzyme-coupled spectrophotometric assay developed previously. […] The IC50 value of B6 was calculated as the mean of three independent experiments."}, "[9]": {"system": "Trypanosoma brucei rhodesiense", "parameters": "method as in PMID 18353643", "conditions": "cited from earlier work"}, "[10]": {"system": "Trypanosoma brucei rhodesiense", "experiment": "T. b. rhodesiense in vitro growth inhibition", "format": "cell-based", "conditions": "for IC50: Trypanosoma brucei, RHODESIENSE / STIB900, Figure 1, bloodstream form STIB 900 strain, read-out: IC50 against Trypanosoma brucei rhodesiense parasites", "experimental": "The synthesized compounds were then tested against T. b. rhodesiense parasites as previously reported, and their activities are shown in Figure 1 along with that of B6.\nT. b. rhodesiense in vitro growth inhibition activity of 1–3 (Fig. 1) was assessed using bloodstream form of STIB 900 strain, following the procedure reported in Orhan et al.."}, "[11]": {"system": "Trypanosoma", "parameters": "method as in earlier work", "conditions": "cited from earlier work"}, "[12]": {"parameters": "method as in earlier work", "conditions": "cited from earlier work"}}, "note": "“And” between values parts separate entries of the source, which are not always exact repeats. Identical values can stand only once. “Also recorded” adds a separate entry of the source. Like-named read-outs stand apart in the source and are kept apart here.", "data": [{"smiles": "O=C1C=C(Oc2ccccc2)C(=O)c2ccccc21", "note": "[B6, 2-phenoxy-1,4-naphthoquinone]", "values": [{"measurement": "oxygen consumption rate", "setting": "[1]; cells respiring on 10 mM G3P, absence and presence of SHAM", "result": "the oxygen consumption rate increased"}, {"measurement": "ED50 induced RNAi cell line", "setting": "[2]; G6PDH expression knocked down by RNAi", "result": 0.25, "unit": "µM"}, {"measurement": "ED50 non-induced RNAi cell line", "setting": "[2]; non-induced", "result": 10.8, "unit": "µM"}, {"measurement": "IC50", "setting": "[3]; then 1:10 dilution of enzyme and inhibitor, read-out: IC50 TbGAPDH after dilution 1:10", "result": "9.98 ± 3.53", "unit": "µM"}, {"measurement": "IC50", "setting": "[3]; standard conditions, without dilution, read-out: IC50 TbGAPDH", "result": "7.25 ± 1.62", "unit": "µM"}, {"measurement": "Ki", "setting": "[3]; variation of 3-PGA", "result": "5 µM and 4.99 µM"}, {"measurement": "Ki", "setting": "[3]; variation of NADH", "result": 3.6, "unit": "µM"}, {"measurement": "α value", "setting": "[3]; with respect to 3-PGA", "result": 0.4}, {"measurement": "α value", "setting": "[3]; with respect to NADH", "result": 0.6}, {"measurement": "type of inhibition of TbGAPDH", "setting": "[3]; with respect to NADH and 3-PGA, double reciprocal plots", "result": "non-competitive inhibitor (mixed type)"}, {"measurement": "ED50 bloodstream-form T. b. brucei strain Lister 427", "setting": "[4]", "result": 24.8, "unit": "µM"}, {"measurement": "fold more susceptible, procyclic versus bloodstream-form", "setting": "[5]; glucose-grown cells, strain Lister 427", "result": 100, "unit": "fold"}, {"measurement": "ED50 procyclic trypanosomes", "setting": "[5]; medium containing glucose (SDM79)", "result": "0.25 ± 0.09 µM and 0.25 µM"}, {"measurement": "ED50 procyclic trypanosomes", "setting": "[5]; without glucose (SDM80), proline metabolism", "result": "0.67 ± 0.16", "unit": "µM"}, {"measurement": "ROS production", "setting": "[6]", "result": "able to generate radicals in a significant way; also recorded: considerable production of ROS"}, {"measurement": "selectivity index", "setting": "[7]", "result": 74}, {"measurement": "IC50", "setting": "[8]", "result": "0.9 ± 0.3", "unit": "µM"}, {"measurement": "IC50", "setting": "[9]; Figure 1, lead B6, read-out: IC50 against Trypanosoma brucei rhodesiense parasites", "result": 0.08, "unit": "µM"}, {"measurement": "ED50 against Trypanosoma brucei rhodesiense", "setting": "[9]; in vitro cultured parasites", "result": 0.08, "unit": "µM"}]}, {"smiles": "Nc1ccc(OC2=CC(=O)c3ccccc3C2=O)cc1", "note": "[Compound 1, 2-(4-amino-phenoxy)-[1,4]naphthoquinone]", "values": [{"measurement": "IC50", "setting": "[10]", "result": 0.57, "unit": "µM"}, {"measurement": "times less active than B6", "setting": "[10]; anti-T. b. rhodesiense activity relative to B6", "result": 7, "unit": "times"}]}, {"smiles": "O=C1C(Oc2ccccc2)=CC(=O)c2c(O)cccc21", "note": "[Compound 2, 5-hydroxy-2-phenoxy-[1,4]naphthoquinone]", "values": [{"measurement": "IC50", "setting": "[10]", "result": 4.4, "unit": "µM"}]}, {"smiles": "O=C1C=C(Oc2ccccc2)C(=O)c2c(O)cccc21", "note": "[Compound 3, 8-hydroxy-2-phenoxy-[1,4]naphthoquinone]", "values": [{"measurement": "IC50", "setting": "[10]", "result": 0.85, "unit": "µM"}]}, {"smiles": "O=C(NO)c1ccccc1O", "note": "[SHAM, salicylhydroxamic acid, reference compound]", "values": [{"measurement": "respiration", "setting": "[1]; 2 mM SHAM, 10 mM G3P as electron donor", "result": "inhibited respiration completely"}]}, {"smiles": "CC(C)=CCC1=C(O)C(=O)c2ccccc2C1=O", "note": "[lapachol]", "values": [{"measurement": "anti-trypanosomal profile", "setting": "[11]", "result": "marked anti-trypanosomal profile"}, {"measurement": "toxic effects in humans", "setting": "[12]", "result": "no serious toxic effects in humans"}]}]}
